The experiment has as its target T1, full length SGK1 (Homo sapiens, UniProt O00141).
T1 construct: 125 μM full length SGK1 (Life Technologies Part #PR7358A); purchased Life Technologies PR7358A
T1 sequence (O00141 1-431): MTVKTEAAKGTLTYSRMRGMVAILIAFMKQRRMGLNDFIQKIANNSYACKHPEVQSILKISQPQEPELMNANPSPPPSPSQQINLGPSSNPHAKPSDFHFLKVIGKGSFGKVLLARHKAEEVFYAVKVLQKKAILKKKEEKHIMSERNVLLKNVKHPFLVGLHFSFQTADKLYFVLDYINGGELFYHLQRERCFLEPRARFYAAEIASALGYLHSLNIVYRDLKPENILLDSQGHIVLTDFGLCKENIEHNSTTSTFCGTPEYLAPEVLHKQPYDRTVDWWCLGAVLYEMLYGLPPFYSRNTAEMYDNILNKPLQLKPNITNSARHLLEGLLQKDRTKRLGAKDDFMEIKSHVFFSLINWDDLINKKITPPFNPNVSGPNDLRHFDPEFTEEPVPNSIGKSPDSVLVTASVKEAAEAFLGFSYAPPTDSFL
As to the kind of experiment: SGK1 inhibition Assay A (Caliper LabChip electrophoretic separation of fluorescent peptide substrate and phosphorylated product). The settings on record: Assay A; 20 μM ATP, 40 min incubation; read-out: SGK1 IC50. Type of experiment: biochemical.

Molecules are shown by their SMILES.

As usually defined, the IC50 is the concentration at which inhibition is half-maximal. As for `COc1cc(C#N)ccc1C(=O)N[C@@H]1CCCN(c2cc(C3=CCN(C(C)=O)C3)n3ncnc(N)c23)C1` [Example 496, (R)-N-(1-(7-(1-acetyl-2,5-dihydro-1H-pyrrol-3-yl)-4-aminopyrrolo[2,1-f][1,2,4]triazin-5-yl)piperidin-3-yl)-4-cyano-2-methoxybenzamide], the IC50 was found to be 344 nM.

For the molecule `NC(=O)c1ccc(-c2cc(N3CCC[C@@H](NC(=O)c4ccc(C(F)F)s4)C3)c3c(N)ncnn23)cc1F` [Example 497, (R)-N-(1-(4-amino-7-(4-carbamoyl-3-fluorophenyl)pyrrolo[2,1-f][1,2,4]triazin-5-yl)piperidin-3-yl)-5-(difluoromethyl)thiophene-2-carboxamide], the IC50 is 1 nM.

`COC(=O)N1CC=C(c2cc(N3CCC[C@@H](NC(=O)c4cc5cc(C#N)ccc5[nH]4)C3)c3c(N)ncnn23)C1` [Example 498, Methyl (R)-3-(4-amino-5-(3-(5-cyano-1H-indole-2-carboxamido)piperidin-1-yl)pyrrolo[2,1-f][1,2,4]triazin-7-yl)-2,5-dihydro-1H-pyrrole-1-carboxylate]: the half-maximal inhibitory concentration (IC50) was found to be 41 nM.

Regarding `COC(=O)N1CC=C(c2cc(N3CCC[C@@H](NC(=O)c4cc5cc(F)ccc5[nH]4)C3)c3c(N)ncnn23)C1` [Example 499, methyl (R)-3-(4-amino-5-(3-(5-fluoro-1H-indole-2-carboxamido)piperidin-1-yl)pyrrolo[2,1-f][1,2,4]triazin-7-yl)-2,5-dihydro-1H-pyrrole-1-carboxylate], the IC50 was 121 nM.

Regarding `COC(=O)N1CC=C(c2cc(N3CCC[C@@H](NC(=O)c4cc5ccc(C(F)(F)F)cc5[nH]4)C3)c3c(N)ncnn23)C1` [Example 500, methyl (R)-3-(4-amino-5-(3-(6-(trifluoromethyl)-1H-indole-2-carboxamido)piperidin-1-yl)pyrrolo[2,1-f][1,2,4]triazin-7-yl)-2,5-dihydro-1H-pyrrole-1-carboxylate], the IC50 came out at 188 nM.

As for `CC(=O)N1CC=C(c2cc(N3CCC[C@@H](NC(=O)c4cc(-c5cncnc5)n[nH]4)C3)c3c(N)ncnn23)C1` [Example 501, (R)-N-(1-(7-(1-acetyl-2,5-dihydro-1H-pyrrol-3-yl)-4-aminopyrrolo[2,1-f][1,2,4]triazin-5-yl)piperidin-3-yl)-3-(pyrimidin-5-yl)-1H-pyrazole-5-carboxamide], the IC50 came to 292 nM.

`N#Cc1ncc(-c2cc(N3CCC[C@@H](NC(=O)c4ccc(C(F)F)s4)C3)c3c(N)ncnn23)cn1` [Example 502, (R)-N-(1-(4-amino-7-(2-cyanopyrimidin-5-yl)pyrrolo[2,1-f][1,2,4]triazin-5-yl)piperidin-3-yl)-5-(difluoromethyl)thiophene-2-carboxamide]: the IC50 was found to be 39 nM.

In the case of `Nc1ncnn2c(-c3ccc(=O)n(CC(F)F)c3)cc(N3CCC[C@@H](NC(=O)c4cc5ccccc5[nH]4)C3)c12` [Example 503, (R)-N-(1-(4-amino-7-(1-(2,2-difluoroethyl)-6-oxo-1,6-dihydropyridin-3-yl)pyrrolo[2,1-f][1,2,4]triazin-5-yl)piperidin-3-yl)-1H-indole-2-carboxamide], the IC50 turned out to be 9 nM.

With `Nc1ncnn2c(-c3ccc(=O)n(CC(F)F)c3)cc(N3CCC[C@@H](NC(=O)c4cc(-c5ccccc5)n[nH]4)C3)c12` [Example 504, (R)-N-(1-(4-amino-7-(1-(2,2-difluoroethyl)-6-oxo-1,6-dihydropyridin-3-yl)pyrrolo[2,1-f][1,2,4]triazin-5-yl)piperidin-3-yl)-3-phenyl-1H-pyrazole-5-carboxamide], the half-maximal inhibitory concentration (IC50) was found to be 2 nM.

Turning to `N#Cc1cc(-c2cc(N3CCC[C@@H](NC(=O)c4ccc(C(F)F)s4)C3)c3c(N)ncnn23)ccn1` [Example 505, (R)-N-(1-(4-amino-7-(2-cyanopyridin-4-yl)pyrrolo[2,1-f][1,2,4]triazin-5-yl)piperidin-3-yl)-5-(difluoromethyl)thiophene-2-carboxamide], the IC50 was determined as 6 nM.

Take `CN(C)CCn1c(C(=O)N[C@@H]2CCCN(c3cc(-c4ccc(C#N)nc4)n4ncnc(N)c34)C2)cc2ccccc21` [Example 506, (R)-N-(1-(4-amino-7-(6-cyanopyridin-3-yl)pyrrolo[2,1-f][1,2,4]triazin-5-yl)piperidin-3-yl)-1-(2-(dimethylamino)ethyl)-1H-indole-2-carboxamide]: the IC50 came out at 886 nM.

On to `CC(C)Cn1cc(-c2cc(N3CCC[C@@H](NC(=O)c4cc5ccccc5[nH]4)C3)c3c(N)ncnn23)ccc1=O` [Example 507, (R)-N-(1-(4-amino-7-(1-isobutyl-6-ox0-1,6-dihydropyridin-3-yl)pyrrolo[2,1-f][1,2,4]triazin-5-yl)piperidin-3-yl)-1H-indole-2-carboxamide], for which the IC50 came to 82 nM.

As for `Nc1ncnn2c(-c3cncnc3)cc(N3CCC[C@@H](NC(=O)c4cc5ccccc5[nH]4)C3)c12` [Example 508, (R)-N-(1-(4-amino-7-(pyrimidin-5-yl)pyrrolo[2,1-f][1,2,4]triazin-5-yl)piperidin-3-yl)-1H-indole-2-carboxamide], the 50% inhibitory concentration (IC50) was determined as 195 nM.

In the case of `N#Cc1ccc(-c2cc(N3CCC[C@@H](NC(=O)c4cc5ccccc5[nH]4)C3)c3c(N)ncnn23)cn1` [Example 509, (R)-N-(1-(4-amino-7-(6-cyanopyridin-3-yl)pyrrolo[2,1-f][1,2,4]triazin-5-yl)piperidin-3-yl)-1H-indole-2-carboxamide], the IC50 turned out to be 21 nM.

For `CC(C)Cn1cc(-c2cc(N3CCC[C@@H](NC(=O)c4ccc(C(F)F)s4)C3)c3c(N)ncnn23)ccc1=O` [Example 510, (R)-N-(1-(4-amino-7-(1-isobutyl-6-oxo-1,6-dihydropyridin-3-yl)pyrrolo[2,1-f][1,2,4]triazin-5-yl)piperidin-3-yl)-5-(difluoromethyl)thiophene-2-carboxamide], the IC50 is 44 nM.

Consider `Cc1nc(C)c(C(=O)N[C@@H]2CCCN(c3cc(-c4cncnc4)n4ncnc(N)c34)C2)s1` [Example 511, (R)-N-(1-(4-amino-7-(pyrimidin-5-yl)pyrrolo[2,1-f][1,2,4]triazin-5-yl)piperidin-3-yl)-2,4-dimethylthiazole-5-carboxamide], for which the IC50 came out at 450 nM.

For `Cc1nc(C)c(C(=O)N[C@@H]2CCCN(c3cc(-c4ccc(C#N)nc4)n4ncnc(N)c34)C2)s1` [Example 512, (R)-N-(1-(4-amino-7-(6-cyanopyridin-3-yl)pyrrolo[2,1-f][1,2,4]triazin-5-yl)piperidin-3-yl)-2.4-dimethylthiazole-5-carboxamide], the IC50 was 66 nM.

As for `Cc1nc(C)c(C(=O)N[C@@H]2CCCN(c3cc(-c4ccnc(C#N)c4)n4ncnc(N)c34)C2)s1` [Example 513, (R)-N-(1-(4-amino-7-(2-cyanopyridin-4-yl)pyrrolo[2,1-f][1,2,4]triazin-5-yl)piperidin-3-yl)-2.4-dimethylthiazole-5-carboxamide], the half-inhibitory concentration (IC50) was found to be 32 nM.

Turning to `Cc1nc(C)c(C(=O)N[C@@H]2CCCN(c3cc(-c4ccc(=O)n(CC(C)C)c4)n4ncnc(N)c34)C2)s1` [Example 514, (R)-N-(1-(4-amino-7-(1-isobutyl-6-oxo-1,6-dihydropyridin-3-yl)pyrrolo[2,1-f][1,2,4]triazin-5-yl)piperidin-3-yl)-2,4-dimethylthiazole-5-carboxamide], the concentration for half-maximal inhibition (IC50) came to 131 nM.

Take `N#Cc1ccc(-c2cc(N3CCC[C@@H](NC(=O)c4cc5cc(F)ccc5[nH]4)C3)c3c(N)ncnn23)cn1` [Example 515, (R)-N-(1-(4-amino-7-(6-cyanopyridin-3-yl)pyrrolo[2,1-f][1,2,4]triazin-5-yl)piperidin-3-yl)-5-fluoro-1H-indole-2-carboxamide]: the 50% inhibitory concentration (IC50) stood at 130 nM.

For the molecule `Nc1ncnn2c(-c3cncnc3)cc(N3CCC[C@@H](NC(=O)c4cc5cc(F)ccc5[nH]4)C3)c12` [Example 516, (R)-N-(1-(4-amino-7-(pyrimidin-5-yl)pyrrolo[2,1-f][1,2,4]triazin-5-yl)piperidin-3-yl)-5-fluoro-1H-indole-2-carboxamide], the IC50 amounted to 164 nM.

As for `CC(=O)N1CC=C(c2cc(N3CCC[C@@H](NC(=O)c4cc5cc(F)ccc5[nH]4)C3)c3c(N)ncnn23)C1` [Example 517, (R)-N-(1-(7-(1-acetyl-2,5-dihydro-1H-pyrrol-3-yl)-4-aminopyrrolo[2,1-f][1,2,4]triazin-5-yl)piperidin-3-yl)-5-fluoro-1H-indole-2-carboxamide], the IC50 was 28 nM.

For `COC(=O)N1CC=C(c2cc(N3CCC[C@@H](NC(=O)c4cc5cc(F)ccc5[nH]4)C3)c3c(N)ncnn23)C1` [Example 518, Methyl (R)-3-(4-amino-5-(3-(5-fluoro-1H-indole-2-carboxamido)piperidin-1-yl)pyrrolo[2,1-f][1,2,4]triazin-7-yl)-2,5-dihydro-1H-pyrrole-1-carboxylate], the concentration for half-maximal inhibition (IC50) came to 138 nM.

As for `Cc1cc(-c2cc(N3CCC[C@@H](NC(=O)c4ccc(C(F)F)s4)C3)c3c(N)ncnn23)cnc1C#N` [Example 522], the IC50 was 17 nM.

For the molecule `N#Cc1ncc(-c2cc(N3CCC[C@@H](NC(=O)c4ccc(C(F)F)s4)C3)c3c(N)ncnn23)cc1F` [Example 523, (R)-N-(1-(4-amino-7-(6-cyano-5-fluoropyridin-3-yl)pyrrolo[2,1-f][1,2,4]triazin-5-yl)piperidin-3-yl)-5-(difluoromethyl)thiophene-2-carboxamide], the concentration for half-maximal inhibition (IC50) is 118 nM.

Values taken from patent US20260250290A1 (BRISTOL-MYERS SQUIBB COMPANY, priority 2023, published 2026).
